Measurements taken from patent publication US20090179638A1, “ASSAY FOR IDENTIFYING INHIBITORS OF NEURONAL APOPTOTIC PATHWAYS” (AEGERA THERAPEUTICS INC., priority 2006, published 2009).
“Also recorded” adds a separate entry of the source.

Assays:
SCG neurons = experiment: NGF-withdrawal induced cell death of SCG neurons (MTS assay); assay type: cell-based, rat; conditions: SCG neurons withdrawn from NGF, 48 hours
Protocol: FIG. 1 is a graph showing that compound 1 inhibits NGF-withdrawal induced cell death. Cultures of rat SCG neurons (see Materials and Methods) initially maintained in 10 ng/ml of NGF were withdrawn from NGF and maintained in media containing compound 1 at the concentrations indicated for 48 hours. Cellular viability was assayed using an MTS assay. (*=P<0.01 relative to no compound 1). Experiments were performed three times with identical results.
Survival of neonatal primary sympathetic neurons is dependent on trophic support provided by Neuronal Growth Factor (NGF) (reviewed in (Young et al., 2004)).
(§1) Cell culture, infection, transfection and immunoblotting. Sympathetic neurons were maintained and deprived of NGF as previously described (Bamji et al., 1998; Ma et al., 1992). PC12^rtTA cells were maintained and infected as previously described (Majdan et al., 1997; Salehi et al., 2002); for NRAGE, […] doxycycline was added to all plates at time of infection. Wildtype and HSF1 nullizygous immortalized mouse embryonic fibroblasts (MEFs) were maintained in DMEM containing 10% fetal calf serum, 1 μM β-mercaptoethanol, 1% non-essential amino acids, 1% L-glutamine, 1% antimycotic solution and 1% sodium pyruvate (all from GibcoBRL). Sympathetic neuron survival was assessed using the MTS assay according to the manufacturer's instructions (Promega). Analysis of PC12 cell death was determined using a lactate dehydrogenase (LDH) assay (Roche) as per the manufacturer's instructions. Transfections using plasmids or RNAi were performed using Lipofectamine 2000. Immunoblotting was performed as previously described (Majdan et al., 1997; Salehi et al., 2002).

JNK = experiment: NRAGE- and p75NTR-induced JNK activation in PC12rtTA cells (c-Jun phosphorylation, caspase-3 cleavage, immunoblot); assay type: cell-based; conditions: for c-Jun phosphorylation: AdNRG infected, 30 hours (FIG. 6C)
Protocol: FIGS. 2C and 2D are photographs of Western blots which illustrate that compound 1 inhibits NRAGE- and p75NTR-induced JNK activation. C, D: Compound 1 inhibits NRAGE- and p75NTR-induced JNK activation. PC12^rtTA cells were infected with AdNRG at 5 MOI (C), with Adp75 at 50 MOI (D), or with AdLacZ at an equivalent MOI for each experiment, as indicated. At time of infection, the cells were treated with increasing concentrations of compound 1, or with vehicle alone, as indicated. […] Experiments in Panel A-D were performed three times with essentially identical results.
Activation of JNK activity is necessary for the induction of p75NTR- or NRAGE-initiated caspase cleavage and cell death (Bhakar et al., 2003; Salehi et al., 2002). Therefore, the effect of compound 1 on the activity of JNK was assessed by analyzing alterations in the phosphorylation level of the JNK target, c-Jun, and the cleavage status of caspase-3. […] Thus, the suppression of JNK signaling and caspase-3 cleavage mediated by compound 1 occurred with a dose-dependency similar to the anti-apoptotic activity of compound 1.
as §1

HSP90 = experiment: Compound 6-bead pulldown of purified HSP90; assay type: binding; conditions: competing compound at 80 μM
Protocol: FIGS. 5B and 5C are photographs of Western blots showing that compound 1 binds HSP90 and causes HSF1-dependent expression of HSP70 and HSP25. A: Wild-type or HSF1 null MEFs were transfected with pGL3B-HSP70, an HSP70 promoter reporter construct, or parental vector (pGL3B), then treated with 40 μM of compound 1 for 24 hours and analyzed for luciferase content as described in Materials and Methods (*=P<0.005 relative to 0 compound 1; **=P<0.005 relative to wild-type MEFs treated with 40 uM compound 1. B: Wild-type or HSF1 null MEFs were treated with increasing concentrations of compound 1 for 24 hours, cells were lysed, normalized for protein content, and analyzed for levels of HSP70, HSP40, and HSP25 as indicated. C: Compound 6-conjugated Sepharose beads were incubated with purified HSP90 for 2 hours, washed, and levels of bound HSP90 were analyzed by immunoblot. Con=Control beads, Alone=Compound 6-beads alone, Comp=[…]+competing compound 1 (at 80 μM). Experiments in Panel A-C were performed three times with identical results.
Compound 6 was coupled with Affi-Gel 10 beads (BioRad) and used as an affinity reagent in pulldown experiments. Beads were incubated either with whole cell lysates or with purified HSP90, washed extensively, and bound proteins were then eluted and analyzed by SDS-PAGE and immunoblotting. […]

PC12^rtTA cells = experiment: p75NTR- or NRAGE-induced cell death of PC12rtTA cells (LDH release assay); assay type: cell-based; conditions: for protection from Adp75- or AdNRG-induced cell death: increasing concentrations, LDH
Protocol: FIGS. 2A and 2B are graphs showing that compound 1 inhibits p75NTR or NRAGE induced JNK activation and cell death. Compound 1 inhibits NRAGE (A) or p75NTR (B) mediated cell death. PC12^rtTA cells were infected with recombinant adenoviruses expressing full-length NRAGE (AdNRG) at 5 MOI, full length p75NTR (Adp75) at 50 or 100 MOI, or the control protein β-galactosidase (AdLacZ) (at 5 MOI in (A) and 50 MOI in (B)). At time of infection, the cells were treated with an increasing concentration of compound 1, or with vehicle alone, as indicated. After 40 hours, cells were assayed for death using the lactate dehydrogenase (LDH) assay; untreated cells (Un) and cells treated with 1% Triton X-100 (Tx) were used to delineate the output range of the assay. Results are normalized relative to those obtained with 1% Triton (Tx), and represent the mean±standard deviation of a representative experiment performed in triplicate (*=P<0.005 relative to no compound 1).
PC12^rtTA were infected with adenoviruses encoding p75NTR (Adp75), NRAGE (AdNRG), or as a control, LacZ (AdLacZ), and were concurrently exposed to increasing concentrations of compound 1 for a period of 40 hours. Cell death was assessed using an LDH release assay. […] Treatment with 40 μM compound 1 reduced p75NTR- or NRAGE-induced cell death by greater than 90%.
as §1

Row | SMILES | protection from NGF-withdrawal induced cell death (SCG neurons) | c-Jun phosphorylation and caspase-3 cleavage (JNK; 10 μM, AdNRG infected cells) | decrease in c-Jun phosphorylation and caspase-3 cleavage (JNK; 40 μM, AdNRG infected cells) | c-Jun phosphorylation (JNK; 40 μM) | ability to block c-jun phosphorylation in cells transfected with HSP70 RNAi (JNK; HSP70 siRNA transfected PC12rtTA cells) | JNK inhibitory effects (JNK; extended (24 hour) incubation, 40 μM) | JNK inhibitory effects (JNK; short term (1 hr) incubation, 40 μM) | effect of excess unbound compound on compound 6-bead:HSP90 interaction (HSP90) | reduction of p75NTR- or NRAGE-induced cell death (PC12^rtTA cells; 40 μM, 40 hours, LDH release) | toxic effect in cells infected with the LacZ control (PC12^rtTA cells; 80 μM) | inhibition of p75NTR- or NRAGE-induced apoptosis (PC12^rtTA cells; 80 μM (highest concentration tested)) | protection from Adp75- or AdNRG-induced cell death (PC12^rtTA cells; 40 hours)
1 | NS(=O)(=O)c1nn2cc(-c3ccccc3)nc2s1 [Compound 1] | protected; also recorded: inhibits | significant decrease | virtually complete | reducing | small but consistent attenuation | occurred | not short term | strongly attenuated | greater than 90% | slight toxic effect | effectively inhibited apoptosis | strongly attenuated; also recorded: protected
2 | NS(=O)(=O)c1nn2cc(-c3ccc(N4CCOCC4)cc3)nc2s1 [Compound 2] | protected |  |  | reducing |  |  |  |  |  |  |  | protected
